# Measured values as given in patent publication US11459339B2, “Biaryl derivative, preparation method thereof and pharmaceutical application thereof” (Abbisko Therapeutics Co., Ltd., priority 2018, dated 2022).
# Experiments:
# [1] = biological target: interaction between PD-1 and PD-L1 expressed on cell surfaces (Homo sapiens (Human), UniProt Q9NZQ7); assay: Jurkat reporter gene cellular assay (Jurkat/NF-κB-luc/PD1 cells cocultured with Raji-PD-L1 cells, OKT-3 stimulation); assay type: cell-based; conditions: NF-κB-luc reporter activation fold, 6 hrs; read-out: Cell Activity EC50
# Chain of interaction between PD-1 and PD-L1 expressed on cell surfaces (Q9NZQ7 19-290): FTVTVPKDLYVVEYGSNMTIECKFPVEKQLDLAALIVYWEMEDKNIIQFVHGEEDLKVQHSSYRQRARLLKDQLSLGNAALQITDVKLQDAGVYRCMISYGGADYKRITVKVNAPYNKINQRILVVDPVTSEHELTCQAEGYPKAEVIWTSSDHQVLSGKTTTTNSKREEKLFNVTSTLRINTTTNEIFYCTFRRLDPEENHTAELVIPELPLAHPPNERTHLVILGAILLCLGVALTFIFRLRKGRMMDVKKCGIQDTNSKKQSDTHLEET
# Method in brief: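 EC50 comes from non-linear regression of activation fold (compound reading over DMSO reading) against concentration. Read-out was luciferase signal 6 h after OKT-3-stimulated coculture of PD-1/NF-κB-luc Jurkat cells with PD-L1-expressing Raji cells, 5*10^4 cells each per well.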
# [2] = biological target: interaction between PD-1 and PD-L1 (Homo sapiens (Human), UniProt Q9NZQ7); assay: PD1-PDL1 HTRF binding activity test (Cisbio PD-1/PD-L1 binding assay kit); conditions: read-out: PD1-PDL1 HTRF Binding Activity IC50
# Chain of interaction between PD-1 and PD-L1 (Q9NZQ7 19-238): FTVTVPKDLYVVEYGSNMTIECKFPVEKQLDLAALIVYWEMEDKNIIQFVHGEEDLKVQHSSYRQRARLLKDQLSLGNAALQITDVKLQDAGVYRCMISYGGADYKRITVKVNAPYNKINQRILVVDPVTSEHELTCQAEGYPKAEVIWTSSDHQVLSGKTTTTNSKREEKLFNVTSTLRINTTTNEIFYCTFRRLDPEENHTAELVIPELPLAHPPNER
EC50 [1],IC50 [2],Compound
3060 nM,7.8 nM,"COC[C@@H](NCc1cnc(C(=O)Nc2cccc(-c3cccc(NC(=O)c4cc(OC)c(CN[C@H](COC)C(=O)OC)cn4)c3C)c2C)cc1OC)C(=O)OC [Example 76, dimethyl 2,2′-((((((2,2′-dimethyl-[1,1′-biphenyl]-3,3′-diyl)bis(azanediyl))bis(carbonyl))bis (4-methoxypyridine-6,3-diyl))bis(methylene))bis(azanediyl))(2R,2′R)-bis(3-methoxypropanoate)]"
297 nM,0.41 nM,"COC[C@@H](NCc1cnc(C(=O)Nc2cccc(-c3cccc(NC(=O)c4cc(OC)c(CN[C@H](COC)C(=O)O)cn4)c3C)c2C)cc1OC)C(=O)O [Example 77, (2R,2′R)-2,2′-((((((2,2′-dimethyl-[1,1′-biphenyl]-3,3′-diyl)bis(azanediyl))bis(carbonyl))bis(4-methoxypyridine-6,3-diyl))bis(methylene))bis (azanediyl))bis(3-methoxypropanoic acid)]"
2910 nM,10.9 nM,"COC[C@H](NCc1cnc(C(=O)Nc2cccc(-c3cccc(NC(=O)c4cc(OC)c(CN[C@@H](COC)C(=O)OC)cn4)c3C)c2C)cc1OC)C(=O)OC [Example 78, dimethyl 2,2′-((((((2,2′-dimethyl-[1,1′-biphenyl]-3,3′-diyl)bis(azanediyl))bis(carbonyl))bis(4-methoxypyridine-6,3-diyl))bis(methylene))bis (azanediyl))(2S,2′S)-bis(3-methoxypropanoate)]"
171 nM,0.65 nM,"COC[C@H](NCc1cnc(C(=O)Nc2cccc(-c3cccc(NC(=O)c4cc(OC)c(CN[C@@H](COC)C(=O)O)cn4)c3C)c2C)cc1OC)C(=O)O [Example 79, (2S,2′S)-2,2′-((((((2,2′-dimethyl-[1,1′-biphenyl]-3,3′-diyl)bis(azanediyl))bis(carbonyl))bis(4-methoxypyridine-6,3-diyl))bis(methylene))bis (azanediyl))bis(3-methoxypropanoic acid)]"
3740 nM,0.082 nM,"COc1cc(C(=O)Nc2cccc(-c3cccc(NC(=O)c4cc(OC)c(CNCCS(C)(=O)=O)cn4)c3C)c2C)ncc1CNCCS(C)(=O)=O [Example 80, N,N'-(2,2′-dimethyl-[1,1′-biphenyl]-3,3′-diyl)bis(4-methoxy-5-(((2-(methylsulfonyl)ethyl)amino)methyl)picolinamide)]"
406 nM,1.34 nM,"COc1cc(C(=O)Nc2cccc(-c3cccc(NC(=O)c4cc(OC)c(CN[C@H](CO)C(N)=O)cn4)c3C)c2C)ncc1CN[C@H](CO)C(N)=O [Example 86, N,N′-(2,2′-dimethyl-[1,1′-biphenyl]-3,3′-diyl)bis(5-((((R)-1-amino-3-hydroxy-1-oxopropan-2-yl)amino)methyl)-4-methoxypicolinamide)]"
800 nM,1.08 nM,CCNC(=O)[C@@H](CO)NCc1cnc(C(=O)Nc2cccc(-c3cccc(NC(=O)c4cc(OC)c(CN[C@H](CO)C(=O)NCC)cn4)c3C)c2C)cc1OC [Example 87]
182 nM,0.41 nM,"COc1cc(C(=O)Nc2cccc(-c3cccc(NC(=O)c4cc(OC)c(CNCCS(C)(=N)=O)cn4)c3C)c2C)ncc1CNCCS(C)(=N)=O (stereo not drawn) [Example 88, N,N'-(2,2′-dimethyl-[1,1′-biphenyl]-3,3′-diyl)bis(4-methoxy-5-(((2-(S-methylsulfonimidoyl)ethyl)amino)methyl)picolinamide)]"

# The next lines start with the molecule.
Compound,EC50 [1],IC50 [2]
"COc1cc(C(=O)Nc2cccc(-c3cccc(NC(=O)c4cc(OC)c(CNCC[S+](C)[O-])cn4)c3C)c2C)ncc1CNCC[S+](C)[O-] (stereo not drawn) [Example 81, N,N'-(2,2′-dimethyl-[1,1′-biphenyl]-3,3′-diyl)bis(4-methoxy-5-(((2-(methylsulfinyl)ethyl)amino)methyl)picolinamide)]",900 nM,0.43 nM
"COC(=O)[C@H]1CCN(Cc2cnc(C(=O)Nc3cccc(-c4cccc(NC(=O)c5cc(OC)c(CN6CC[C@H](C(=O)OC)C6)cn5)c4C)c3C)cc2OC)C1 [Example 82, dimethyl 1,1′-(((((2,2′-dimethyl-[1,1-biphenyl]-3,3′-diyl)bis(azanediyl))bis(carbonyl))bis(4-methoxypyridine-6,3-diyl))bis(methylene))(3S,3′S)-bis(pyrrolidine-3-carboxylate)]",566 nM,1.9 nM
"COc1cc(C(=O)Nc2cccc(-c3cccc(NC(=O)c4cc(OC)c(CN5CC[C@H](C(=O)O)C5)cn4)c3C)c2C)ncc1CN1CC[C@H](C(=O)O)C1 [Example 83, (3S,3′S)-1,1′-(((((2,2′-dimethyl-[1,1′-biphenyl]-3,3′-diyl)bis(azanediyl))bis(carbonyl))bis(4-methoxypyridine-6,3-diyl))bis(methylene))bis (pyrroidine-3-carboxylic acid)]",309 nM,1.04 nM
"COC(=O)C1CCN(Cc2cnc(C(=O)Nc3cccc(-c4cccc(NC(=O)c5cc(OC)c(CN6CCC(C(=O)OC)CC6)cn5)c4C)c3C)cc2OC)CC1 [Example 84, dimethyl 1,1′-(((((2,2′-dimethyl-[1,1′-biphenyl]-3,3′-diyl)bis(azanediyl))bis(carbonyl))bis(4-methoxypyridine-6,3-diyl))bis(methylene))bis(piperidine-4-carboxylate)]",603 nM,1.36 nM
"COc1cc(C(=O)Nc2cccc(-c3cccc(NC(=O)c4cc(OC)c(CN5CCC(C(=O)O)CC5)cn4)c3C)c2C)ncc1CN1CCC(C(=O)O)CC1 [Example 85, 1,1′-(((((2,2′-dimethyl-[1,1′-biphenyl]-3,3′-diyl)bis(azanediyl))bis(carbonyl))bis (4-methoxypyridine-6,3-diyl))bis(methylene))bis (piperidine-4-carboxylic acid)]",341 nM,0.45 nM
"COc1cc(C(=O)Nc2cccc(-c3cccc(NC(=O)c4cc(OC)c(CNCCN=S(C)(C)=O)cn4)c3C)c2C)ncc1CNCCN=S(C)(C)=O [Example 89, N,N'-(2,2′-dimethyl-[1,1′-biphenyl]-3,3′-diyl)bis(5-(((2-((dimethyl(oxo)λ^6-sulfaneylidene)amino)ethyl)amino)methyl)-4-methoxypicolinamide)]",427 nM,0.87 nM
"COc1cc(C(=O)Nc2cccc(-c3cccc(NC(=O)c4cc(OC)c(CNCCN=S5(=O)CCCC5)cn4)c3C)c2C)ncc1CNCCN=S1(=O)CCCC1 [Example 90, N,N'-(2,2′-dimethyl-[1,1′-biphenyl]-3,3′-diyl)bis(4-methoxy-5-(((2-((1-oxidotetrahydro-1λ^6-thiophen-1-ylidene)amino)ethyl)amino)methyl)picolinamide)]",131 nM,0.36 nM
"Cc1c(NC(=O)c2cc(C3CC3)c(CNCCO)cn2)cccc1-c1cccc(NC(=O)c2cc(C3CC3)c(CNCCO)cn2)c1C [Example 91, N,N'-(2,2′-dimethyl-[1,1′-biphenyl]-3,3′-diyl)bis(4-cyclopropyl-5-(((2-hydroxyethyl)amino)methyl)picolinamide)]",39 nM,0.16 nM
"Cc1c(NC(=O)c2cc(C3CC3)c(CNC(CO)CO)cn2)cccc1-c1cccc(NC(=O)c2cc(C3CC3)c(CNC(CO)CO)cn2)c1C [Example 92, N,N′-(2,2′-dimethyl-[1,1′-biphenyl]-3,3′-diyl)bis(4-cyclopropyl-5-(((1,3-dihydroxypropan-2-yl)amino)methyl)picolinamide)]",54.7 nM,0.87 nM
"CC(=O)NCCNCc1cnc(C(=O)Nc2cccc(-c3cccc(NC(=O)c4cc(C5CC5)c(CNCCNC(C)=O)cn4)c3C)c2C)cc1C1CC1 [Example 93, N,N'-(2,2′-dimethyl-[1,1′-biphenyl]-3,3′-diyl)bis(5-(((2-acetamidoethyl)amino)methyl)-4-cyclopropylpicolinamide)]",104 nM,1.49 nM
"Cc1c(NC(=O)c2cc(C3CC3)c(CNCC3(O)CC3)cn2)cccc1-c1cccc(NC(=O)c2cc(C3CC3)c(CNCC3(O)CC3)cn2)c1C [Example 94, N,N'-(2,2′-dimethyl-[1,1′-biphenyl]-3,3′-diyl)bis(4-cyclopropyl-5-((((1-hydroxycyclopropyl)methyl)amino)methyl)picolinamide)]",566 nM,4.75 nM
"Cc1c(NC(=O)c2cc(C3CC3)c(CN[C@H](C)CO)cn2)cccc1-c1cccc(NC(=O)c2cc(C3CC3)c(CN[C@H](C)CO)cn2)c1C [Example 95, N,N'-(2,2′-dimethyl-[1,1′-biphenyl]-3,3′-diyl)bis(4-cyclopropyl-5-((((R)-1-hydroxypropan-2-yl)amino)methyl)picolinamide)]",125 nM,2.02 nM
"Cc1c(NC(=O)c2cc(C3CC3)c(CN[C@@H](C)CO)cn2)cccc1-c1cccc(NC(=O)c2cc(C3CC3)c(CN[C@@H](C)CO)cn2)c1C [Example 96, N,N'-(2,2′-dimethyl-[1,1′-biphenyl]-3,3′-diyl)bis(4-cyclopropyl-5-((((S)-1-hydroxypropan-2-yl)amino)methyl)picolinamide)]",87 nM,1.44 nM
Cc1c(NC(=O)c2cc(C3CC3)c(CNC3CCC[C@@H]3O)cn2)cccc1-c1cccc(NC(=O)c2cc(C3CC3)c(CN[C@H]3CCC[C@@H]3O)cn2)c1C (stereo partly drawn) [Example 97],221 nM,3.38 nM
"Cc1c(NC(=O)c2cc(C3CC3)c(CN3CC(O)C3)cn2)cccc1-c1cccc(NC(=O)c2cc(C3CC3)c(CN3CC(O)C3)cn2)c1C [Example 98, N,N′-(2,2′-dimethyl-[1,1′-biphenyl]-3,3′-diyl)bis(4-cyclopropyl-5-((3-hydroxyazetidin-1-yl)methyl)picolinamide)]",241 nM,3.78 nM
"Cc1c(NC(=O)c2cc(C3CC3)c(CN3CC(C)(O)C3)cn2)cccc1-c1cccc(NC(=O)c2cc(C3CC3)c(CN3CC(C)(O)C3)cn2)c1C [Example 99, N,N′-(2,2′-dimethyl-[1,1′-biphenyl]-3,3′-diyl)bis(4-cyclopropyl-5-((3-hydroxy-3-methylazetidin-1-yl)methyl)picolinamide)]",260 nM,1.43 nM
